For data set [1] the following is noted: dog, oral, equivalent to 10 mg/kg nimesulide; mean of 4 dogs; computer fitting (TOP FIT) of plasma levels.
Protocol: (§1) Plasma kinetics were carried out in dog after oral administration of equivalent dosages of nimesulide and inclusion compound nimesulide -β-cyclodextrin according to a crossover scheme. Four male Beagle of body weight between 12.8 and 13.9 kg, fasted for at least 17 hours, were orally administered the following preparations: • A) nimesulide at the dose of 10 mg/kg • B) inclusion compound nimesulide -β-cyclodextrin (molar ratio 1 : 1) at the dose of 46.84 mg/Kg, corresponding to 10 mg/kg of nimesulide.
(§2) The preparations were administered in gelatine capsule after a "wash-out" period of 10 days.
(§3) The blood samples from dogs were collected in heparinized tubes after 1, 2, 3, 4, 5, 6, 8, 24, 28, 32, 48 and 52 hours from the administration of the two preparations. The relative plasma samples were obtained by centrifugation for 15 minutes at 3000 rpm.
(§4) The plasma levels of nimesulide were determined by HPLC with UV detection according to the following procedure: aliquots of plasma up to 2.5 ml were adjusted to 3.5 ml with distilled water and acidified with 1.0 ml of N hydrochloric acid and poured on to a glass column (18 mm i.d. 220 mm of lenght) containing 15 ml of Extralat® Merck. After 15 minutes nimesulide was eluted with two aliquotes of 7.5 ml of dichloromethane containing 5% of methanol. The eluate was evaporated to dryness under reduced pressure and the residue was taken up with 200 µl of 2.5 µg/ml solution of butilhydroxyanisole as internal standard. A suitable amount was therefore injected into a column by using the following chromatographic conditions: • Column RPC₈, 5 µm, 250 x 3 mm i.d. Supelco; • Mobile phase : acetonitrile + water containing 80 mg/l of EDTA in the ratio V/V 37.5 and 62.5 respectively; • Flow rate : 1.0 ml/min. • λ of detection: 230 nm
(§5) The parameters of AUC. Cmax and Tmax were calculated by the plasma levels of nimesulide using a computer fitting system with TOP FIT package and the results were statistically evaluated by the ANOVA TWO WAYS procedure.
The nature of the next data set: in vivo. The conditions noted are these: male, Beagle, dog, plasma, po, 10 mg/kg.

Protocol for in vivo: as §1, §2, §3, §4, §5

For orientation: AUC(0-t) means the area under the concentration-time curve up to a stated or last time point. A lower AUC(0-t) goes with less exposure. What is called Cmax is the maximum level reached in the sampled fluid or tissue. With `CS(=O)(=O)Nc1ccc([N+](=O)[O-])cc1Oc1ccccc1` [Preparation A, 4-nitro-2-phenoxy-methansulfonanilide], in data set [1], the TCmax was determined as 4.4 h. For the same molecule, in the data set “in vivo”, the area under the curve AUC(0-t) is 165 µg·h/mL and the peak level (Cmax) was 12100 ng/mL.

The values are drawn from patent EP0534995B1, “INCLUSION COMPOUNDS OF NIMESULIDE WITH CYCLODEXTRINS” (BOEHRINGER INGELHEIM ITALIA S.p.A., priority 1990, dated 1991).
